Earlier results on 2 compounds are cited in US10858526B2, “Water-based ink composition for ink jet recording and coloring material liquid” (Seiko Epson Corporation, priority 2017, dated 2020).

The conditions of this series: water-soluble organic solvent.

As to `CCCC(O)CCO` (centres unmarked) [1,3-hexanediol], the “water-octanol partition coefficient (log P)” value is reported as 0.28.
On to `CCCCOCCOCCO` [butyl diglycol], for which the “water-octanol partition coefficient (log P)” value is reported as 0.56.
